Source: patent US20110136899A1, “COMBINATION OF DRONEDARONE WITH AT LEAST ONE DIURETIC, AND THERAPEUTIC USE THEREOF” (SANOFI-AVENTIS, priority 2008, published 2011)
Counter-ions that a name gives are not always drawn.

Tests used:
[1] = regulation of the blood potassium level (regular blood samples taken throughout the clinical study); format: in vivo, patients; details: after the 24th month, taking into account the starting value; compared to the placebo; p<0.0001
Description: The potassium concentration-modulating effect is clearly documented in the study by virtue of the results of analyses of regular blood samples taken throughout the duration of the study in the context of the monitoring of vital parameters.
The variations in potassium (in mmol/l) between the first and the last administration of the medicament of the study are included in FIG. 8, in which B signifies basal level, D signifies day and M signifies month.

[2] = prospective, multinational, multicentre, double-blind clinical study versus placebo: prevention of cardiovascular hospitalizations or of mortality; format: in vivo, patients; design: reduction in mortality from any cause: concentration or dose not given beside the values
Procedure: The patients had to have a history of atrial fibrillation or flutter and/or could be in normal sinus rhythm or in atrial fibrillation or flutter at inclusion.
The patient recruitment was carried out by taking into account the following inclusion criteria:
Inclusion Criteria: • 1) One of the following risk factors had to be present: • age equal to or above 70, or even above 75, possibly combined with at least one of the risk factors below: • hypertension (taking antihypertensives of at least two different classes), • diabetes, • history of cerebral stroke (transient ischemic event or completed cerebral stroke) or of systemic embolism, • left atrial diameter greater than or equal to 50 mm measured by echocardiography, • left ventricular ejection fraction less than 40%, measured by two-dimensional echography; • 2) availability of an electrocardiogram carried out during the past 6 months in order to document the presence or the history of atrial fibrillation or flutter; • 3) availability of an electrocardiogram carried out during the past 6 months in order to document the presence or absence of normal sinus rhythm.
Treatment was initiated using tablets containing either the placebo or an amount of dronedarone hydrochloride corresponding to 400 mg of dronedarone at a rate of one tablet in the morning during or shortly after breakfast and one tablet in the evening during or shortly after dinner.
The anticipated duration of the treatment was variable according to the time at which each patient was included in the study, and could range from a minimum of 12 months for the last patient included up to a maximum corresponding to the entire duration of the study (12 months+duration of inclusion), i.e. approximately 30 months for the first patients included.
The results obtained in this trial were analysed by the Kaplan Meier method for the figures, and the relative risk (RR) was estimated using Cox's proportional-effect regression model.
The relative risk (RR) is the ratio of the rates of occurrence of a hospitalization or of a death among the patients on dronedarone, relative to the patients on placebo.
The percentage reduction x of a given event (hospitalization, death, cardiovascular death, etc.) is calculated in the following way: […]

[3] = versus placebo, x=1−relative risk

For `CCCCc1oc2ccc(NS(C)(=O)=O)cc2c1C(=O)c1ccc(OCCCN(CCCC)CCCC)cc1` [dronedarone, 2-n-Butyl-3-[4-(3-di-n-butylaminopropoxy)benzoyl]-5-methylsulphonamidobenzofuran], the “change in blood potassium level (analysis of covariance)” value [1] was “significant different in favour of dronedarone”, the “reduction in the risk of sudden death” value ([2]; hypertensive patients) was “approximately 62%” and the “reduction in the risk of sudden death” value ([2]; patients not taking diuretics, compared with the placebo) was “approximately 34%”. For the same molecule, the “reduction in the risk of sudden death” value ([2]; patients on diuretics, compared with the placebo) was “approximately 70.4%” and the “reduction in the risk of sudden death” value ([2]; patients who were not hypertensive) was “approximately 45.5%”.

For `CCCCc1oc2ccc(NS(C)(=O)=O)cc2c1C(=O)c1ccc(OCCCN(CCCC)CCCC)cc1` [dronedarone hydrochloride], the “events (cardiovascular hospitalizations and mortality, principal judgment criterion)” value ([2]; 2301 patients in treated group, 400 mg dronedarone twice daily, placebo group 917 events) was 734, the sudden deaths ([2]; 2301 patients in treated group, placebo group 35 sudden deaths) was 14 and the cardiovascular deaths ([2]; 2301 patients in treated group, placebo group 94 cardiovascular deaths) was 65. The “deaths (mortality from any cause)” value ([2]; 2301 patients in treated group, placebo group 139 deaths) was 116, the “events (cardiovascular hospitalizations)” value ([2]; 2301 patients in treated group, placebo group 859 events) was 675 and the “events (cardiovascular hospitalizations and sudden death)” value ([2]; 2301 patients in treated group, placebo group 873 events) was 684. The “events (cardiovascular hospitalizations and cardiovascular mortality)” value ([2]; 2301 patients in treated group, placebo group 892 events) was 701, the “relative risk (sudden death)” value ([2]; versus placebo, Cox model, p=0.0031) was 0.405 and the “relative risk (cardiovascular mortality)” value ([2]; versus placebo, Cox model, p=0.0252) was 0.698. For the same molecule, the “relative risk (mortality from any cause)” value ([2]; versus placebo, Cox model, p=0.1758) was 0.844, the “relative risk (cardiovascular hospitalizations and deaths)” value ([2]; versus placebo, Cox model, p=2×10^−8) was 0.758 and the “relative risk (cardiovascular hospitalizations)” value ([2]; versus placebo, Cox model, p=9×10^−9) was 0.745. The “relative risk (cardiovascular hospitalizations and cardiovascular deaths)” value ([2]; versus placebo, Cox model, p=45×10^−10) was 0.745, the “relative risk (cardiovascular hospitalizations and sudden deaths)” value ([2]; versus placebo, Cox model, p=48×10^−10) was 0.743 and the “reduction in cardiovascular hospitalizations” value [2, 3] was 25.5%. The “reduction in cardiovascular hospitalizations and cardiovascular deaths” value [2, 3] was 25.5%, the “reduction in cardiovascular hospitalizations and deaths” value [2, 3] was 24.2% and the “reduction in cardiovascular hospitalizations and sudden deaths” value [2, 3] was 25.5%. The “reduction in cardiovascular mortality” value [2, 3] was 30.2%, the “reduction in mortality from any cause” value [2, 3] was 15.6% and the “reduction in sudden death” value [2, 3] was 59.5%.
